The nature of the data set: Water solubility. Format: physicochemical.

As for `CCCCOc1ccc(OCCCC)c2c1-c1nc3nc(nc4[nH]c([nH]c5nc(nc-2n1)-c1c(OCCCC)ccc(OCCCC)c1-5)c1c(OCCCC)ccc(OCCCC)c41)-c1c(OCCCC)ccc(OCCCC)c1-3` [762Pc, 1,4,8,11,15,18,22,25-Octabutoxy-29H,31H-phthalocyanine], the water solubility entry is reported as “negligible”.

The values above are taken from patent US12486245B2, “Sequential multi-step flash nanoprecipitation for the formation of nanoparticles with high core loadings” (The Trustees of Princeton University, priority 2019, dated 2025).
